# Assay results taken from ChEMBL document CHEMBL1140197, “Synthesis, characterization and antibacterial activity of cobalt(III) complexes with pyridine-amide ligands” (Eur J Med Chem, 2008).
# Columns and labels:
# [1] = Cytotoxicity against HEK cells assessed as cell viability at 0.73 to 1500 ug/mL after 48 hrs by MTT assay; assay type: cell-based; details: human, hek293, 48 h
# Pseudomonas aeruginosa [2] = assay: Antibacterial activity against Pseudomonas aeruginosa MTCC 1688 after 16 hrs by microbroth dilution method; assay type: functional, organism-based
# Escherichia coli = assay: Antibacterial activity against clinical isolate resistant Escherichia coli after 16 hrs by microbroth dilution method; assay type: functional, organism-based
# Proteus vulgaris = assay: Antibacterial activity against clinical isolate resistant Proteus vulgaris after 16 hrs by microbroth dilution method; assay type: functional, organism-based
# Pseudomonas aeruginosa [3] = assay: Antibacterial activity against clinical isolate resistant Pseudomonas aeruginosa after 16 hrs by microbroth dilution method; assay type: functional, organism-based
# Raoultella planticola = assay: Antibacterial activity against Klebsiella planticola MTCC 2272 after 16 hrs by microbroth dilution method; assay type: functional, organism-based
# Shigella flexneri = assay: Antibacterial activity against Shigella flexneri MTCC 1457 after 16 hrs by microbroth dilution method; assay type: functional, organism-based
Sequence,Activity [1],MIC (Pseudomonas aeruginosa [2]) [µg/mL],MIC (Escherichia coli) [µg/mL],MIC (Proteus vulgaris) [µg/mL],MIC (Pseudomonas aeruginosa [3]) [µg/mL],MIC (Raoultella planticola) [µg/mL],MIC (Shigella flexneri) [µg/mL]
GENTAMICIN [listing 1 of 2 here],Active,–,–,–,–,–,–
GENTAMICIN [listing 2 of 2 here],–,1.46,11,187,5.5,1.46,1.46
